Some test systems named below: UO-31 renal; MOLT-4 leukemia; SF-295 CNS; SK-OV-3 ovarian; SK-MEL-28 melanoma; NCI-H460 lung; NCI/ADR-RES ovarian; MDA-MB-435; UACC-257 melanoma; RXF 393 renal; MALME-3M melanoma; COLO 205 colon; A549 NSCLC; OVCAR-8 ovarian; OVCAR-4 ovarian.
Holding throughout (assay): NCI tumour cell line growth inhibition, 48 h

SMILES strings stand for the structures.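 1) Cells in 96-well plates. 2) Compound, 48 h, 5 concentrations. 3) Linear interpolation between surrounding doses. 4) Unreached endpoint = highest concentration. The concentration for full growth arrest is given as TGI.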 Bounds are passed on as bounds.

As for `CCN(CC)CCNc1ccc2ncn3c4c(OC)ccc(=O)c4c(O)c1c23`, the TGI in the assay on UO-31 renal was > 100 µM; in the assay on MOLT-4 leukemia, > 24.6 µM; in the assay on SF-295 CNS, > 100 µM; in the assay with SK-OV-3 ovarian, > 100 µM; in the assay on SK-MEL-28 melanoma it was 27.1 µM; in the assay on NCI-H460 lung, > 100 µM. Further, the TGI was > 50.9 µM in the assay on NCI/ADR-RES ovarian; > 100 µM in the assay on MDA-MB-435; > 100 µM with UACC-257 melanoma; 34.1 µM with RXF 393 renal; 98.6 µM in the assay on MALME-3M melanoma; > 100 µM in the assay with COLO 205 colon. Further, the TGI in the assay with A549 NSCLC, in the assay with OVCAR-8 ovarian and in the assay on OVCAR-4 ovarian was > 100 µM each time.
For `CCN(CC)CCOCC1CCCN2CCCCC12` (stereo not given), the TGI with UO-31 renal, in the assay with MOLT-4 leukemia, with SF-295 CNS, with SK-OV-3 ovarian, in the assay with SK-MEL-28 melanoma and with NCI-H460 lung was > 100 µM each time. In addition, the TGI with NCI/ADR-RES ovarian, in the assay on MDA-MB-435, with UACC-257 melanoma, in the assay with RXF 393 renal, with MALME-3M melanoma and in the assay on COLO 205 colon was > 100 µM each time. Also, the TGI in the assay with A549 NSCLC, in the assay with OVCAR-8 ovarian and in the assay with OVCAR-4 ovarian was > 100 µM throughout.
In the case of `N#Cc1nc(NC(=O)c2ccccc2)sc1N`, the TGI with UO-31 renal, in the assay on MOLT-4 leukemia, in the assay on SF-295 CNS, in the assay with SK-OV-3 ovarian, with SK-MEL-28 melanoma and with NCI-H460 lung was > 10 µM each time. Moreover, the TGI with NCI/ADR-RES ovarian, with MDA-MB-435, with UACC-257 melanoma, in the assay with RXF 393 renal, in the assay with MALME-3M melanoma and with COLO 205 colon was > 10 µM each time. Besides, the TGI with A549 NSCLC, with OVCAR-8 ovarian and in the assay with OVCAR-4 ovarian was > 10 µM in each case.
Take `COC1CC(n2ccc(=O)[nH]c2=O)OC1CO` (stereo not given): the TGI in the assay with UO-31 renal, in the assay on MOLT-4 leukemia, in the assay on SF-295 CNS, in the assay on SK-OV-3 ovarian, in the assay with SK-MEL-28 melanoma and with NCI-H460 lung was > 100 µM throughout. The TGI with NCI/ADR-RES ovarian, in the assay on MDA-MB-435, in the assay on UACC-257 melanoma, in the assay on RXF 393 renal, in the assay with MALME-3M melanoma and in the assay on COLO 205 colon was > 100 µM throughout. For the same compound, the TGI in the assay with A549 NSCLC, in the assay on OVCAR-8 ovarian and with OVCAR-4 ovarian was > 100 µM each time.
Take `Nc1nc(Sc2ccc([N+](=O)[O-])cn2)c2[nH]cnc2n1`: the TGI is 24.7 µM in the assay with UO-31 renal; > 35.8 µM with MOLT-4 leukemia; > 94.2 µM in the assay with SF-295 CNS; > 51.1 µM in the assay on SK-OV-3 ovarian; > 100 µM in the assay with SK-MEL-28 melanoma; > 64.9 µM in the assay on NCI-H460 lung. For the same compound, the TGI with NCI/ADR-RES ovarian was 30.3 µM; in the assay with MDA-MB-435, > 46.1 µM; with UACC-257 melanoma, > 100 µM; in the assay with RXF 393 renal, > 30.4 µM; with MALME-3M melanoma, 36.1 µM; with COLO 205 colon, 39 µM. Besides, the TGI was 62.1 µM with A549 NSCLC, > 80.4 µM in the assay with OVCAR-8 ovarian and > 61.2 µM in the assay on OVCAR-4 ovarian.
For `Cc1cn(C2CC(N=[N+]=[N-])C(CO)O2)c(=O)n(CCCCO)c1=O` (stereo not given), the TGI in the assay on UO-31 renal, in the assay on MOLT-4 leukemia, with SF-295 CNS, in the assay on SK-OV-3 ovarian, with SK-MEL-28 melanoma and with NCI-H460 lung was > 100 µM throughout. Besides, the TGI in the assay on NCI/ADR-RES ovarian, in the assay on MDA-MB-435, with UACC-257 melanoma, in the assay with RXF 393 renal, in the assay on MALME-3M melanoma and in the assay on COLO 205 colon was > 100 µM each time. The TGI with A549 NSCLC, with OVCAR-8 ovarian and in the assay on OVCAR-4 ovarian was > 100 µM throughout.
With `Cc1cccc(Nc2nc(NNC(=O)Cc3ccccc3)nc(NNC(=O)c3ccncc3)n2)c1`, the TGI in the assay with UO-31 renal, with MOLT-4 leukemia, in the assay on SF-295 CNS, in the assay on SK-OV-3 ovarian, in the assay with SK-MEL-28 melanoma and in the assay on NCI-H460 lung was > 10 µM each time. For the same compound, the TGI with NCI/ADR-RES ovarian, in the assay on MDA-MB-435, with UACC-257 melanoma, with RXF 393 renal, in the assay on MALME-3M melanoma and with COLO 205 colon was > 10 µM in each case. Moreover, the TGI in the assay on A549 NSCLC, with OVCAR-8 ovarian and in the assay on OVCAR-4 ovarian was > 10 µM each time.
Regarding `CSc1n[nH]c2n[nH]c(C)c12`, the TGI with UO-31 renal, in the assay with MOLT-4 leukemia, with SF-295 CNS, in the assay with SK-OV-3 ovarian, in the assay on SK-MEL-28 melanoma and in the assay with NCI-H460 lung was > 100 µM in each case. Further, the TGI in the assay with NCI/ADR-RES ovarian, with MDA-MB-435, in the assay on UACC-257 melanoma, in the assay on RXF 393 renal, in the assay with MALME-3M melanoma and with COLO 205 colon was > 100 µM in each case. In addition, the TGI in the assay with A549 NSCLC, with OVCAR-8 ovarian and in the assay with OVCAR-4 ovarian was > 100 µM in each case.
For `CC(=O)NC(CCCOC(C)=O)C(=O)NC(CCCOC(C)=O)C(=O)NC(CCCOC(C)=O)C(=O)NC(Cc1ccc([N+](=O)[O-])cc1)C(=O)NCC(=O)OCc1ccccc1` (stereo not given), the TGI with UO-31 renal, with MOLT-4 leukemia, in the assay with SF-295 CNS, with SK-OV-3 ovarian, with SK-MEL-28 melanoma and in the assay on NCI-H460 lung was > 100 µM each time. The TGI in the assay with NCI/ADR-RES ovarian, with MDA-MB-435, in the assay on UACC-257 melanoma, in the assay with RXF 393 renal, in the assay on MALME-3M melanoma and in the assay with COLO 205 colon was > 100 µM each time. For the same compound, the TGI in the assay with A549 NSCLC, with OVCAR-8 ovarian and in the assay on OVCAR-4 ovarian was > 100 µM in each case.

Values taken from PubChem BioAssay (NCI).
